How the values were obtained:
[1] = biological target: T1, 5-lipoxygenase (Rattus norvegicus, UniProt P12527); experiment: ARBL whole cell 5-lipoxygenase assay (inhibition of LTB4 formation in RBL-1 cells); assay type: cell-based; conditions: RBL-1 whole cells; 50% inhibition of LTB4 formation; calcium ionophore A23187 (5 μM); RIA
T1 construct: host or cells: RBL-1 (rat basophilic leukemia)
T1 sequence (P12527 1-673): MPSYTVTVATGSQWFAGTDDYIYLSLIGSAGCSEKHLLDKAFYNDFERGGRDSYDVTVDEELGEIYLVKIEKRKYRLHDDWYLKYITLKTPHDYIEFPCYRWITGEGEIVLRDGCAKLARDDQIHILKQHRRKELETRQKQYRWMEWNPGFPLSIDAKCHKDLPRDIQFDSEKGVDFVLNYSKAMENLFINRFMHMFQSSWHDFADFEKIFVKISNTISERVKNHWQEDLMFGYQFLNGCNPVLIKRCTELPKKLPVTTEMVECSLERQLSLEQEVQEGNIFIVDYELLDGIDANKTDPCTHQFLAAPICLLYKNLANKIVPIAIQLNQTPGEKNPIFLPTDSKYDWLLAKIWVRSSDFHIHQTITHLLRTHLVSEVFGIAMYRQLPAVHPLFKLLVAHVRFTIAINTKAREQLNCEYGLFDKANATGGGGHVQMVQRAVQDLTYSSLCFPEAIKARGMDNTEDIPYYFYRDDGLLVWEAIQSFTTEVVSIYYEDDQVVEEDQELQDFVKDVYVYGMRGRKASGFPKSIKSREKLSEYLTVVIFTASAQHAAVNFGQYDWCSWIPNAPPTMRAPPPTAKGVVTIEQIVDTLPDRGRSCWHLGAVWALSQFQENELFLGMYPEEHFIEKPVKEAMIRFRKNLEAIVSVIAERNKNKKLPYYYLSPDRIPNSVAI
Experimental: (§1) ARBL/ARBC WHOLE CELL 5-LIPOXYGENASE AND CYCLOOXYGENASE ASSAYS The rat basophilic leukemia cell line (RBL-1) was obtained from the American Type Culture Collection (Rockville, Md.). Radioimmunoassay (RIA) kits of LTB4 and PGF2α were obtained from Amersham (Arlington Heights, Ill.) and Seragen (Boston, Mass.), respectively. RBL-1 cells are grown in suspension culture in Eagle's minimum essential medium supplemented with 12% fetal bovine serum at 37° C. in an incubator supplied with air-5% carbon dioxide. Cells are harvested by centrifugation. They are washed with cold phosphate buffered saline pH 7.4 (PBS; NaCl, 7.1 g; NaHPO, 1.15 g; KHPO, 0.2 g; and KCl, 0.2 g/l). Cells are finally suspended in PBS containing 1.0 mM calcium at a density of […] cells/ml. Cells are incubated with and without test agent (in DMSO) (1% DMSO is without effect on arachidonic acid metabolism) for ten minutes at room temperature. Calcium ionophore A23187 (5 μM) is added and cells are incubated for seven minutes at 37° C. The reaction is stopped by chilling the tubes on ice for ten minutes. Cells are separated by centrifugation and the supernatant is stored at -20°. Aliquots (100 μL) are analyzed for LTB4 and PGF2α using radioimmunoassay kits as provided by the supplier. […]

[2] = tested on: cyclooxygenase; experiment: ARBC whole cell cyclooxygenase assay (inhibition of PGF2α formation in RBL-1 cells); assay type: cell-based, rat; conditions: RBL-1 whole cells; 50% inhibition of PGF2α formation; calcium ionophore A23187 (5 μM); RIA
Experimental: as §1

IC50 [1]: 1180 nM
IC50 [2]: 1350 nM
SMILES: CON(C)C(=O)c1nc(C(C)(C)C)c(O)c(C(C)(C)C)n1 [Example 1, 4,6-Bis(1,1-dimethylethyl)-5-hydroxy-N-methoxy-N-methyl-2-pyrimidinecarboxamide]

From patent publication US5240929A, “2-heterocyclic-5-hydroxy-1,3-pyrimidines useful as antiinflammatory agents” (Warner-Lambert Company, priority 1992, dated 1993)
